Results as given in US20190142864A1, “METHODS AND SYSTEMS, FOR INTERFERING WITH VIABILITY OF BACTERIA AND RELATED ANTIMICROBIALS AND COMPOSITIONS” (CALIFORNIA INSTITUTE OF TECHNOLOGY, priority 2017, published 2019).
Entries after “also recorded” stand apart in the source; their conditions may differ.

What was measured:
P. aeruginosa cultures [1] = experiment: Bacterial-survival endpoint assay, viable-cell plate counts after 4 hr; assay type: cell-based, Pseudomonas aeruginosa; conditions: for lethality (viable-cell plate counts): anoxic conditions with 400 μM nitrate; for lethality (viable-cell plate counts) / sensitivity of cultures (viable-cell plate counts): 40 μg/ml tobramycin, 10 mM chlorate
Experimental: In aerobic-survival endpoint assays, overnight aerobic cultures were pelleted, washed twice with and resuspended in LB, and added to a 96-well microtiter plate at high cell density (optical density at 500 nm [OD500]˜3). Wells also contained sodium chlorate (final concentration, 10 mM), sodium chlorite (final concentration, 10 mM), tobramycin (final concentration, 40 μg ml^−1), or an equal volume (20 μl) of dH2O in untreated-control wells (200-μl total volume per well). Ninety-six-well plates were incubated at 37° C. with shaking at 250 rpm for 4 hr before viable cells on plates were counted. Anaerobic-survival endpoint assays were performed as described above, except […], […], and 96-well plates were incubated anaerobically at 33° C. for 4 hr and then removed from the glove box so that cultures could be serially diluted for viable-cell plate counts.
(§1) Viable-cell plate counts were performed by serially diluting samples in phosphate-buffered saline (PBS). Dilutions spanning 7 orders of magnitude were plated on LB agar plates as 10-μl drips. Plates were incubated at 37° C. for ˜20 h, and incubation continued at room temperature (72 hr of total incubation) to allow for the growth of slow-growing colonies. Colonies were counted daily, and numbers of CFU per milliliter were calculated at the end of the incubation period. All viable-cell plate counting was carried out under aerobic conditions.
High-density P. aeruginosa cultures (˜10^9CFU ml^−1) were incubated with and without drugs under oxic conditions, […], or anoxic conditions without nitrate (no terminal electron acceptor) for 4 h, after which viability was determined (FIG. 1).

[2] = tested on: P. aeruginosa aggregate biofilms; experiment: Agar block biofilm assay (ABBA), LIVE/DEAD staining and confocal microscopy; assay type: cell-based, Pseudomonas aeruginosa; conditions: 6 hr treatment; for killing of cells in aggregates at depth (SYTO 9/propidium iodide) / killing of cells in middepth aggregates (SYTO 9/propidium iodide) / killing of cells in surface aggregates (SYTO 9/propidium iodide): 40 μg/ml tobramycin, 10 mM chlorate; for viability of cells at depths of >200 μm: tobramycin compared to untreated samples
Experimental: Overnight aerobic cultures were diluted to an OD500 of 0.001 in molten agar growth medium that had been cooled to 44° C. For all agar block biofilm assays (ABBAs), the growth medium used was LB with 5 mM KNO3 and 0.5% noble agar. A portion of the dilution (175 p.1) was added to chambered cover glass slides (Thermo Fisher Scientific number 155409), solidified at room temperature, and incubated at 37° C. for 12 hr in a humidified chamber. After incubation, cells that were not suspended in the agar were removed by adding 400 μl PBS to the top of each agar block and gently pipetting. Liquid was removed by inversion, and the wash was repeated. Aggregate cells were then treated by pipetting 125 μl of 24 mM sodium chlorate (final concentration, 10 mM), 125 μl of 96 μg ml^−1 tobramycin (final concentration, 40 μg ml^−1), or 62.5 μl of 48 mM chlorate and 62.5 μl of 192 μg ml^−1 tobramycin in combination (10 mM and 40μg m^−1 final concentrations, respectively) on the top of the agar block. All chlorate and tobramycin solutions were made in LB, and 125 μl LB was pipetted on the top of untreated control agar blocks. Treated and untreated samples were incubated at 37° C. in a humidified chamber, with shaking at 220 rpm for 6 hr. After incubation, samples were inverted to remove liquid, and cells were stained using a BacLight LIVE/DEAD bacterial viability staining kit (Thermo Fisher Scientific number L7012). One hundred twenty-five microliters of staining solution (1 μl 3.34 mM SYTO 9, 1 μl 20 mM propidium iodide, 123 μl dH2O) was added to each sample, and samples were incubated at room temperature on a VWR variable-speed rocker at the highest speed for 90 min before being imaged.
Before being imaged, ABBA samples were inverted to remove the staining solution, and 75 μl of a 1:50 dilution of 5-μm fluorescent beads (Spherotech; CFP-5045-2) was added to each sample. Excess liquid was removed by wicking, and beads were used to mark the surface of each sample. ABBA aggregates were imaged using a Leica TCS SPE confocal microscope with an ACS APO 0.3-numeric-aperture/10× objective. The agar surface was determined by visualizing fluorescent beads using a 405-nm solid-state laser for excitation, with data collected from 425 to 475 nm. LIVE/DEAD data were collected using a 488-nm solid-state laser for excitation, with emission collected at 510 to 550 nm and 610 to 650 nm for SYTO 9 and propidium iodide, respectively. Images were collected from three distinct locations near the center of each well as 500-μm z-stacks (50 slices total, 10-μm step size). z-stacks were collected in 8-bit mode with a scan format of 512 by 512 pixels (for quantification) or 1,024 by 1,024 pixels (for representative images) and line averaging of 2. Representative images were chosen from 6 independent experiments.
To quantify ABBA staining, images were loaded in Fiji (92), and background was subtracted from each image using the rolling ball method with a radius of 100 pixels. A threshold was applied to all images to exclude pixels with a value of <20, and total pixel intensity for both stains was determined for each image using the RawIntDen value in the Integrated Density measurement function. The proportion of sensitive cells was determined for each image (at each depth) by dividing the propidium iodide integrated density by the sum of the propidium iodide- and SYTO 9-integrated densities. ABBA staining quantifications are averages from 6 independent experiments (3 technical replicates per independent experiment).
In the ABBA system, an overnight culture is diluted into 0.5% molten agar medium, allowed to solidify, and incubated overnight at 37° C. Agar-suspended cells grow as aggregates, which develop into metabolically distinct populations at different spatial scales.

[3] = Stability of concentrations in cell-free growth medium (ion chromatography); conditions: LB, 72 hr; 1 mM chlorate oxic, anoxic, anoxic with 40 mM nitrate; 40 mM nitrate anoxic plus 1 mM chlorate
Experimental: One millimolar chlorate concentrations were monitored in LB that was incubated for 72 hr under oxic conditions (filled circles), anoxic conditions (open circles), and anoxic conditions with 40 mM nitrate (open circles). Forty millimolar nitrate concentrations were monitored in LB medium that was incubated for 72 hr under anoxic conditions plus 1 mM chlorate (filled circles).
Culture samples were centrifuged at 16,000×g at room temperature for 10 min to pellet cells. Supernatants were diluted 1:10 in dH2O and added to 0.5-ml vials (Thermo Fisher Scientific catalog numbers 038010 and 038011). Nitrate and chlorate concentrations were quantified using the Dionex ICS 2000 ion chromatography system (Environmental Analysis Center, Caltech). Samples were loaded via a 15-μl sample loop onto an AS-19 separator (2- by 250-mm) column protected by an AG-19 guard (2 by 50 mm), maintained at 30° C. […] Anions were detected at neutral pH using an AERS 500 2-mm suppressor (Thermo Fisher Scientific) operated in eluent recycle mode with an applied current of 30 mA, and the conductivity detection cell was maintained at 35° C. […] Sodium chlorate and potassium nitrate standards were used to identify sample analytes via retention time and to generate standard curves for quantifying analyte concentrations.

P. aeruginosa cultures [4] = experiment: 72 hr survival assay with viable-cell counts and chlorate quantification; assay type: cell-based, Pseudomonas aeruginosa; conditions: 1 mM chlorate
Experimental: as §1

[5] = tested on: P. aeruginosa ΔlasR mutant; experiment: 72 hr anoxic survival assay with viable-cell counts and chlorate quantification, ΔlasR; assay type: cell-based, Pseudomonas aeruginosa; conditions: anoxic conditions, 1 mM chlorate
Experimental: as §1

[6] = tested on: P. aeruginosa narG transposon mutant; experiment: Anaerobic adaptation and survival, narG mutant; assay type: cell-based, Pseudomonas aeruginosa; conditions: 1 mM chlorate, 72 hr anoxic
Experimental: Overnight cultures were grown aerobically in LB with 40 mM KNO3, 100 mM L-arabinose, 50 μg ml^−1 gentamicin (for strains containing pMQ72-derived plasmids), and 50 μg ml^−1 kanamycin (for transposon insertion strains). Overnight cultures were pelleted, washed twice in LB with 100 mM L-arabinose to remove antibiotics, and resuspended in LB with 100 mM L-arabinose with or without 1 mM sodium chlorate at high cell density (OD500˜3). Two hundred microliters of resuspended culture was added to 96-well microtiter plates, and the plates were moved to the anaerobic glove box for cells to adapt to the anaerobic lifestyle. After a 72-hr incubation at 33° C., 96-well plates were removed from the anaerobic glove box and viable cells on plates were counted to calculate numbers of CFU per milliliter (described above). Percent survival was calculated for each strain by dividing CFU-permilliliter values from cultures containing chlorate by the average CFU-per-milliliter value from control cultures lacking chlorate and multiplying by 100. CFU-per-milliliter values of untreated control cultures were similar across strains, ranging from 1.0×10^9 to 2.2×10^9. The percentage of chlorate remaining after the 72-hr incubation was determined for each strain by dividing the final chlorate concentration in each culture by the initial chlorate concentration in the medium and multiplying by 100. […]

[7] = tested on: P. aeruginosa ΔlasR ΔnarGHJI strain; experiment: Anaerobic adaptation and survival, ΔlasR ΔnarGHJI; assay type: cell-based, Pseudomonas aeruginosa; conditions: 1 mM chlorate, 72 hr anoxic
Experimental: The narGHJI genes were deleted in WT PA14 and the isogenic ΔlasR background. The region upstream of narG was amplified using primers 5′-[…]-3′ (SEQ ID NO: 11) and 5′-[…]-3′ (SEQ ID NO: 12), and the region downstream of narI was amplified using primers 5′-[…]-3′ (SEQ ID NO: 13) and 5′-[…]-3′ (SEQ ID NO: 14). These fragments were cloned into HindIII- and SacI-digested pMQ30 (89) via Gibson cloning. […]
Overnight cultures were grown aerobically in LB with 40 mM KNO3, 100 mM L-arabinose, 50 μg ml^−1 gentamicin (for strains containing pMQ72-derived plasmids), and 50 μg ml^−1 kanamycin (for transposon insertion strains). […] After a 72-hr incubation at 33° C., 96-well plates were removed from the anaerobic glove box and viable cells on plates were counted to calculate numbers of CFU per milliliter (described above). Percent survival was calculated for each strain by dividing CFU-permilliliter values from cultures containing chlorate by the average CFU-per-milliliter value from control cultures lacking chlorate and multiplying by 100. […] The percentage of chlorate remaining after the 72-hr incubation was determined for each strain by dividing the final chlorate concentration in each culture by the initial chlorate concentration in the medium and multiplying by 100.

[8] = anoxic conditions with 40 mM nitrate
[9] = anoxic conditions without nitrate

Compound | sensitivity of anoxic cultures compared with oxic cultures (P. aeruginosa cultures [1]; 10 mM chlorite) | lethality (viable-cell plate counts) (P. aeruginosa cultures [1]) | sensitivity of cultures (viable-cell plate counts) (P. aeruginosa cultures [1]; [8]) | sensitivity of cultures (viable-cell plate counts) (P. aeruginosa cultures [1]; [9]) | sensitivity of cultures (viable-cell plate counts) (P. aeruginosa cultures [1]; oxic conditions) | killing of cells in aggregates at depth (SYTO 9/propidium iodide) [2] | killing of cells in middepth aggregates (SYTO 9/propidium iodide) [2] | killing of cells in surface aggregates (SYTO 9/propidium iodide) [2] | viability of cells at depths of >200 μm [2] | stability of concentration in cell-free growth medium (abiotic controls) [3] | chlorate-associated cell death (P. aeruginosa cultures [4]; anoxic cultures with 40 mM nitrate) | chlorate-associated cell death (P. aeruginosa cultures [4]; oxic cultures) | viable-cell counts in ΔlasR cultures lower than WT at end of experiment [5] [fold] | chlorate sensitivity (viable-cell counts) ([6]; narG mutant complemented with narGHJI genes) | chlorate sensitivity (viable-cell counts) ([6]; narG mutant) | chlorate sensitivity (percent survival) [7]
sodium chlorite [reference compound] | much more sensitive |  |  |  |  |  |  |  |  |  |  |  |  |  |  | 
NC[C@H]1O[C@H](O[C@H]2[C@H](O)[C@@H](O[C@H]3O[C@H](CO)[C@@H](O)[C@H](N)[C@H]3O)[C@H](N)C[C@@H]2N)[C@H](N)C[C@@H]1O [tobramycin, reference compound] |  | indistinguishable from that in cultures lacking nitrate | sensitive | tolerant | sensitive | tolerant | cells on the exterior being killed and cells on the interior staying alive | killed | increased survival |  |  |  |  |  |  | 
O=[N+]([O-])[O-].[K+] [nitrate, KNO3] |  |  |  |  |  |  |  |  |  | stable |  |  |  |  |  | 
[O-][Cl+2]([O-])O [chlorate, sodium chlorate] |  | indistinguishable from that in cultures lacking nitrate | does not kill; also recorded: tolerant | sensitive; also recorded: kills | does not kill | killed | the exterior of middepth aggregates are chlorate tolerant, whereas aggregates at depth and the interior of middepth aggregates are killed | tolerant | most cells at depths of >200 μm are dead | stable | does not occur until nitrate is consumed | no chlorate-associated cell death | 100 | restores chlorate sensitivity | resistant | chlorate tolerant
